Data from paper PMC5612938, “A multiple biomarker assay for quality assessment of botanical drugs using a versatile microfluidic chip” (Scientific Reports, 2017).

Target: T1, ACE (from rabbit lung) (Oryctolagus cuniculus, UniProt P12822)
T1 construct: ACE (from rabbit lung); purchased Sigma-Aldrich; host or cells: rabbit lung
T1 sequence (P12822 34-1310): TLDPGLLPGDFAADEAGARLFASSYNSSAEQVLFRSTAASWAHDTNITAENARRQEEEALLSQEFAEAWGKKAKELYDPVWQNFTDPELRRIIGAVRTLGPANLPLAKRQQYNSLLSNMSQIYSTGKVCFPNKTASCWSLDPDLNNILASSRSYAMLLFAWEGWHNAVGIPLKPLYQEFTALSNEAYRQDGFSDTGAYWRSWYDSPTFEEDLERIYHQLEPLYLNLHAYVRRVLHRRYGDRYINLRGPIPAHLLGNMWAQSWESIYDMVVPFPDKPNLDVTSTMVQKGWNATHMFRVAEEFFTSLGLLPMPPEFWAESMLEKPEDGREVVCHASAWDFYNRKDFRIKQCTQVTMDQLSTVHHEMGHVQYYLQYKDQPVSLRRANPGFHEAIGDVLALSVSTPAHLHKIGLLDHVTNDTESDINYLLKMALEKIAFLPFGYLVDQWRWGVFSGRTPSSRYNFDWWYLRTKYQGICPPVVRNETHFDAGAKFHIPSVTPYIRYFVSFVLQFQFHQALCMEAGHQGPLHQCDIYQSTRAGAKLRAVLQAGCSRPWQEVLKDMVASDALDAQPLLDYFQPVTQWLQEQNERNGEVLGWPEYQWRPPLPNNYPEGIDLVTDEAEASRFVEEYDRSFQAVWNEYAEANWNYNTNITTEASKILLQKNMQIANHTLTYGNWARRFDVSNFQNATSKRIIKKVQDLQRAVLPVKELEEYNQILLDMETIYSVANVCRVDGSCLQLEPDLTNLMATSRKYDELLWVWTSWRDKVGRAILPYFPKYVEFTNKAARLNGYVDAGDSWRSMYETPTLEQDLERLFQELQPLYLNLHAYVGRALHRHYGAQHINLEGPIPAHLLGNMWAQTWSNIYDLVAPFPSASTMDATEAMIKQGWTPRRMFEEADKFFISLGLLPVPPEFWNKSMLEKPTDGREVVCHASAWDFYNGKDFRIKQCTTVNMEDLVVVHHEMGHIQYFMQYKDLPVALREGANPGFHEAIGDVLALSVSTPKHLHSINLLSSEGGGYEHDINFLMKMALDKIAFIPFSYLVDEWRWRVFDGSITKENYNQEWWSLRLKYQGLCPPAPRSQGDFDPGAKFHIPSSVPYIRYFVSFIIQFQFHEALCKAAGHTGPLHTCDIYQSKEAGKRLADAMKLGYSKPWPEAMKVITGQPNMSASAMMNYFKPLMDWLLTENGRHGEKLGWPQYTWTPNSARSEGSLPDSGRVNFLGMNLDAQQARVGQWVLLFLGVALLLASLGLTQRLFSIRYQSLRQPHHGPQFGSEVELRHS
Assay: on-chip ACE inhibition assay (FAPGG hydrolysis, absorbance decrease 340 nm)
Assay type: biochemical
Procedure: To enhance the performance of the on-chip assay, experimental parameters such as concentrations of enzymes and substrates, substrate reaction time, and incubation time of samples and enzymes were stepwise optimized.
The optimized protocol was first applied to assess the quality of 11 batches of QSYQ intermediates (Table 1). Enzyme inhibition (in percentages) was employed as an indicator of drug quality and calculated according to the following equations: thrombin inhibition (%) = [1 − (AQSYQ/Ablank)] × 100; ACE inhibition (%) = [1 − (ΔAQSYQ/ΔAblank)] × 100; where AQSYQ and Ablank were the absorbance of the test sample and the blank sample after the enzymatic reaction (the background value was subtracted), and ΔAQSYQ and ΔAblank were the absorbance decrease between 0 min and 30 min of the samples.
Thrombin (from human plasma), ACE (from rabbit lung), FAPGG and captopril were purchased from Sigma-Aldrich (St. Louis, USA). […] AEBSF-HCl was purchased from Selleckchem (Houston, USA). Trizma base (Tris) was obtained from Sangon Biotech (Shanghai, China) and dimethyl sulfoxide (DMSO) from J&K Scientific (Beijing, China). All other chemicals were purchased from Sinopharm Chemical (Shanghai, China) unless otherwise indicated. 0.2 M Phosphate buffer (PB, pH 6.5), and 50 mM Tris-HCl buffer (200 mM NaCl, pH 8.3) were prepared as assay buffers for thrombin and ACE, respectively.
MBs (10 mg/mL) were diluted 10 times in PB or Tris-HCl buffer, and 10 μL of the diluted MBs (1 mg/mL) were injected into one channel of the chip using a syringe infusion pump (Harvard Apparatus, USA) and retained by an external magnet. Then, 10 μL of thrombin or ACE solution was added and incubated with MBs for two hours at room temperature to form enzyme-MB complexes. The magnet was manually controlled to move MBs back and forth to enhance the ratio of reaction. Subsequently, MBs were washed twice in assay buffer and magnetically transferred to the other channel through the fluidic bridge, whose opening and closing was controlled by a pneumatic valve. Next, 10 μL of sample solutions of tested drug and 10 μL of enzymatic substrate were sequentially infused to the channel by the pump and incubated with the enzyme. When the enzymatic reaction was finished, the MBs were retained in the channel, and air was injected into the channel from the inlet using a syringe to push all the reacted solution to a 384-well plate. […] Moreover, after detection, the reaction channel was washed three times by assay buffer to remove unbound constituents. 20 μL of 80% aqueous methanol was then injected and incubated with MBs for one hour to dissociate the bound constituents. The resulting solutions of replicates were combined, evaporated by a centrifugal evaporator, reconstituted in 80% aqueous methanol, centrifuged at 10,000 rpm for 10 min, and analyzed by LC-MS for chemical identification.

- ACE inhibition (in words) (at tested concentrations): showed ACE inhibitions
- inhibition rate (for ACE, maximum inhibition rate observed in the assay): 64.2%
Structure (SMILES): O=C(O)C(O)Cc1ccc(O)c(O)c1 (centres unmarked) [Danshensu]
